Data: ChEMBL document CHEMBL1201862, “PubChem BioAssay data set” (2004)
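Test compounds were applied to cells in 96-well plates for 48 hours at 5 doses. GI50 is the concentration that inhibits growth by half.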 Active and inactive are the calls of the source. Cut-off read from the data, not from the text of the source: active = GI50 up to about 1.1 µM and inactive = higher.

Tests used:
Assay in all cases: NCI anticancer screen, dose series, 48 h
A498 = tested on: A498
COLO 205 = tested on: COLO 205
DU-145 = tested on: DU-145
HL-60 = tested on: HL-60
HOP-62 = tested on: HOP-62
HOP-92 = tested on: HOP-92
Hs-578T = tested on: Hs-578T
M14 = tested on: M14
MDA-MB-231 = tested on: MDA-MB-231
Malme-3M = tested on: Malme-3M
OVCAR-5 = tested on: OVCAR-5
PC-3 = tested on: PC-3
SF-295 = tested on: SF-295
SK-MEL-5 = tested on: SK-MEL-5
SR = tested on: SR
TK-10 = tested on: TK-10
UACC-62 = tested on: UACC-62
UO-31 = tested on: UO-31
NCI-H226 = tested on: NCI-H226

Compound: Cc1nc2c(sc(=S)n2-c2ccccc2)c2nc3ncccc3n12
- GI50 (A498): > 100 µM (inactive)
- GI50 (COLO 205): > 100 µM (inactive)
- GI50 (DU-145): > 100 µM (inactive)
- GI50 (HL-60): > 100 µM (inactive)
- GI50 (HOP-62): 25 µM (inactive)
- GI50 (HOP-92): > 100 µM (inactive)
- GI50 (Hs-578T): > 100 µM (inactive)
- GI50 (M14): > 100 µM (inactive)
- GI50 (MDA-MB-231): 45.1 µM (inactive)
- GI50 (Malme-3M): > 100 µM (inactive)
- GI50 (OVCAR-5): > 100 µM (inactive)
- GI50 (PC-3): > 100 µM (inactive)
- GI50 (SF-295): 77.4 µM (inactive)
- GI50 (SK-MEL-5): > 100 µM (inactive)
- GI50 (SR): > 100 µM (inactive)
- GI50 (TK-10): 33.7 µM (inactive)
- GI50 (UACC-62): > 100 µM (inactive)
- GI50 (UO-31): > 100 µM (inactive)

Compound: CCn1c2ccccc2c2nnc(NCCCO)nc21
- GI50 (A498): > 100 µM (inactive)
- GI50 (COLO 205): > 100 µM (inactive)
- GI50 (DU-145): > 100 µM (inactive)
- GI50 (HL-60): > 100 µM (inactive)
- GI50 (HOP-62): > 100 µM (inactive)
- GI50 (HOP-92): > 100 µM (inactive)
- GI50 (Hs-578T): 50.2 µM (inactive)
- GI50 (M14): > 100 µM (inactive)
- GI50 (MDA-MB-231): > 100 µM (inactive)
- GI50 (Malme-3M): > 100 µM (inactive)
- GI50 (NCI-H226): > 100 µM (inactive)
- GI50 (OVCAR-5): > 100 µM (inactive)
- GI50 (PC-3): > 100 µM (inactive)
- GI50 (SF-295): > 100 µM (inactive)
- GI50 (SK-MEL-5): 94.4 µM (inactive)
- GI50 (SR): 92.5 µM (inactive)
- GI50 (TK-10): > 100 µM (inactive)
- GI50 (UACC-62): > 100 µM (inactive)

Compound: Cn1c(=O)c2c(nc(N)n2C2OC(CO)C(O)C2O)n(C)c1=O (stereo not given)
- GI50 (A498): > 100 µM (inactive)
- GI50 (COLO 205): > 100 µM (inactive)
- GI50 (DU-145): > 100 µM (inactive)
- GI50 (HL-60): > 100 µM (inactive)
- GI50 (HOP-62): > 100 µM (inactive)
- GI50 (HOP-92): 61.9 µM (inactive)
- GI50 (Hs-578T): > 100 µM (inactive)
- GI50 (M14): > 100 µM (inactive)
- GI50 (MDA-MB-231): > 100 µM (inactive)
- GI50 (Malme-3M): > 100 µM (inactive)
- GI50 (NCI-H226): > 100 µM (inactive)
- GI50 (OVCAR-5): > 100 µM (inactive)
- GI50 (PC-3): > 100 µM (inactive)
- GI50 (SF-295): > 100 µM (inactive)
- GI50 (SK-MEL-5): > 100 µM (inactive)
- GI50 (SR): > 100 µM (inactive)
- GI50 (TK-10): > 100 µM (inactive)
- GI50 (UACC-62): > 100 µM (inactive)
- GI50 (UO-31): > 100 µM (inactive)

Compound: COc1cc(C2S/C(=C/c3ccccc3)C(=O)N2c2ccc(Cl)c(Cl)c2)cc(OC)c1OC (stereo not given)
- GI50 (A498): > 42.4 µM (inactive)
- GI50 (COLO 205): 46.6 µM (inactive)
- GI50 (DU-145): 38.7 µM (inactive)
- GI50 (HL-60): 15.7 µM (inactive)
- GI50 (HOP-62): 47.3 µM (inactive)
- GI50 (HOP-92): 32.9 µM (inactive)
- GI50 (Hs-578T): 15 µM (inactive)
- GI50 (M14): 28.8 µM (inactive)
- GI50 (MDA-MB-231): > 50.8 µM (inactive)
- GI50 (Malme-3M): 42 µM (inactive)
- GI50 (NCI-H226): 29.4 µM (inactive)
- GI50 (OVCAR-5): 10.1 µM (inactive)
- GI50 (PC-3): 20.5 µM (inactive)
- GI50 (SF-295): 15.8 µM (inactive)
- GI50 (SK-MEL-5): 30.1 µM (inactive)
- GI50 (SR): 26 µM (inactive)
- GI50 (TK-10): > 100 µM (inactive)
- GI50 (UACC-62): 0.78 µM (active)
- GI50 (UO-31): 33.3 µM (inactive)

Compound: O=C(NNC(=S)Nc1ccccc1)c1ccccc1Nc1ccccc1C(=O)NNC(=S)Nc1ccccc1
- GI50 (A498): 42.8 µM (inactive)
- GI50 (COLO 205): 22.1 µM (inactive)
- GI50 (DU-145): 23.3 µM (inactive)
- GI50 (HL-60): 35.5 µM (inactive)
- GI50 (HOP-62): 21.7 µM (inactive)
- GI50 (HOP-92): 8.53 µM (inactive)
- GI50 (Hs-578T): 13.1 µM (inactive)
- GI50 (M14): 19 µM (inactive)
- GI50 (MDA-MB-231): 21.7 µM (inactive)
- GI50 (Malme-3M): 19.8 µM (inactive)
- GI50 (NCI-H226): 24.5 µM (inactive)
- GI50 (OVCAR-5): 16.8 µM (inactive)
- GI50 (PC-3): 23 µM (inactive)
- GI50 (SF-295): 20.9 µM (inactive)
- GI50 (SK-MEL-5): 26.3 µM (inactive)
- GI50 (SR): 43.6 µM (inactive)
- GI50 (TK-10): 25.3 µM (inactive)
- GI50 (UACC-62): 13.1 µM (inactive)
- GI50 (UO-31): 17.7 µM (inactive)

Compound: CC1Cc2cc(O)ccc2C2[C@@H]1C1CC[C@H](O)[C@@]1(C)C[C@@H]2O[N+](=O)[O-] (stereo not given in full)
- GI50 (A498): 31.8 µM (inactive)
- GI50 (COLO 205): 22.3 µM (inactive)
- GI50 (DU-145): 7.45 µM (inactive)
- GI50 (HL-60): 2.79 µM (inactive)
- GI50 (HOP-62): 8.83 µM (inactive)
- GI50 (HOP-92): 13.1 µM (inactive)
- GI50 (Hs-578T): 3.21 µM (inactive)
- GI50 (M14): 6.15 µM (inactive)
- GI50 (MDA-MB-231): 12.1 µM (inactive)
- GI50 (Malme-3M): 10.7 µM (inactive)
- GI50 (NCI-H226): 32.1 µM (inactive)
- GI50 (OVCAR-5): 33.4 µM (inactive)
- GI50 (PC-3): 20.1 µM (inactive)
- GI50 (SF-295): 7.29 µM (inactive)
- GI50 (SK-MEL-5): 4.93 µM (inactive)
- GI50 (SR): 5.56 µM (inactive)
- GI50 (TK-10): 13.2 µM (inactive)
- GI50 (UACC-62): 5.46 µM (inactive)
- GI50 (UO-31): 13.7 µM (inactive)

Compound: COC(=O)CSSCc1ccc([N+](=O)[O-])cc1
- GI50 (A498): 21.6 µM (inactive)
- GI50 (COLO 205): 18.7 µM (inactive)
- GI50 (DU-145): 19.5 µM (inactive)
- GI50 (HL-60): 21.1 µM (inactive)
- GI50 (HOP-62): 20.1 µM (inactive)
- GI50 (HOP-92): 27.1 µM (inactive)
- GI50 (Hs-578T): 21.2 µM (inactive)
- GI50 (M14): 19.8 µM (inactive)
- GI50 (MDA-MB-231): 19.1 µM (inactive)
- GI50 (Malme-3M): 29.6 µM (inactive)
- GI50 (OVCAR-5): 19.4 µM (inactive)
- GI50 (PC-3): 28.1 µM (inactive)
- GI50 (SF-295): 19 µM (inactive)
- GI50 (SK-MEL-5): 17.7 µM (inactive)
- GI50 (SR): 12 µM (inactive)
- GI50 (TK-10): 16.2 µM (inactive)
- GI50 (UACC-62): 15.8 µM (inactive)
- GI50 (UO-31): 10.6 µM (inactive)
